# Laboratory results: publication PMC8187479, “Sugar phosphate activation of the stress sensor eIF2B” (Nature Communications, 2021)
# Molecular target: T1, eIF2Bα (Homo sapiens, UniProt Q14232)
# T1 construct: made in house; host or cells: E. coli BL21(DE3)
# T1 sequence (Q14232 1-305): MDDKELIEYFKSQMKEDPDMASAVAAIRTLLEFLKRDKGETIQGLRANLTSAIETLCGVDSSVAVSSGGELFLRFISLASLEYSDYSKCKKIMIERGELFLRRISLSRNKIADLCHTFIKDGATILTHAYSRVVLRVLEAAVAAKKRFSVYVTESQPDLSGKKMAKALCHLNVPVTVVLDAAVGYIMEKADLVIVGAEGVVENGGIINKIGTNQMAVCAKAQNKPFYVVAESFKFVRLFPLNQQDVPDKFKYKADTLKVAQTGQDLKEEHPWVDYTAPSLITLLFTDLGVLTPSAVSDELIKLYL
# Test: MIDAS (mass spectrometry integrated with equilibrium dialysis) metabolite binding screen
# Conditions: MIDAS metabolite binding screen with eIF2Bα; sheet "eIF2Ba"
# How it was run: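 Hits called at Storey q < 0.1 on z-scores of PCA-corrected log2 fold change between protein and metabolite chambers, quantified by FIA-MS in triplicate.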
row,Structure (SMILES),log2(corrected fold change)
1,OC[C@H]1OC(O)[C@@H](O)[C@@H](O)[C@@H]1O (stereo partly drawn) [D-Mannose],-0.01874
2,OC[C@H]1O[C@H](OC[C@H]2O[C@H](O[C@]3(CO)O[C@H](CO)[C@@H](O)[C@@H]3O)[C@H](O)[C@@H](O)[C@@H]2O)[C@H](O)[C@@H](O)[C@H]1O [D-Raffinose],-0.02977
3,O=C[C@H](O)[C@H](O)[C@H](O)CO [D-Ribose],-0.0769
4,O=C(O)[C@@H](O)[C@@H](O)[C@H](O)[C@@H](O)C(=O)O [D-Saccharic acid],-0.01904
5,O=C(CO)[C@@H](O)[C@H](O)[C@H](O)[C@H](O)COP(=O)(O)O [D-Sedoheptulose 7-phosphate],-0.01312
6,N[C@H](CO)C(=O)O [D-Serine],-0.04824
7,OC[C@H]1O[C@H](O[C@H]2O[C@H](CO)[C@@H](O)[C@H](O)[C@H]2O)[C@H](O)[C@@H](O)[C@@H]1O [D-Trehalose],-0.02052
8,O=C(CO)[C@@H](O)[C@H](O)CO [D-Xylulose],-0.0769
9,O=C(O)CC[C@@H](O)C(=O)O [D-alpha-Hydroxyglutaric acid],-0.0058
10,O=C(O)[C@@H](O)[C@H](O)[C@H](O)[C@@H](O)C(=O)O [D-galactaric acid],0.01388
11,CCCCCCCCCC(=O)O [Decanoic acid],0.004891
12,O=C1OC(C(O)CO)C(=O)C1=O (centres unmarked) [Dehydroascorbic acid],0.003317
13,Nc1ncnc2c1ncn2[C@H]1C[C@H](O)[C@@H](COP(=O)(O)OP(=O)(O)O)O1 [Deoxyadenosine diphosphate],-0.1103
14,Nc1ncnc2c1ncn2[C@H]1C[C@H](O)[C@@H](COP(=O)(O)O)O1 [Deoxyadenosine monophosphate],-0.0746
15,Nc1ccn([C@H]2C[C@H](O)[C@@H](COP(=O)(O)OP(=O)(O)OP(=O)(O)O)O2)c(=O)n1 [Deoxycytidine triphosphate],-0.0001501
16,O=C(O)CCCCCCCCCCC(=O)O [Dodecanedioic acid],0.00577

row,Structure (SMILES),log2(corrected fold change)
1,CNC[C@H](O)c1ccc(O)c(O)c1 [Epinephrine],-0.04113
2,NCCO [Ethanolamine],0.0208
3,CCC(C(=O)O)C(=O)O [Ethylmalonic acid],-0.03876
4,Cc1cc2nc3c(=O)[nH]c(=O)nc-3n(C[C@H](O)[C@H](O)[C@H](O)COP(=O)(O)OP(=O)(O)OC[C@H]3O[C@@H](n4cnc5c(N)ncnc54)[C@H](O)[C@@H]3O)c2cc1C [Flavin adenine dinucleotide],-0.0588
5,Nc1nc(=O)c2nc(CNc3ccc(C(=O)N[C@@H](CCC(=O)O)C(=O)O)cc3)cnc2[nH]1 [Folic acid],-0.02054
6,OC[C@H]1O[C@H](OC2[C@@H](O)[C@H](O)C(O)[C@H](O)[C@@H]2O)[C@H](O)[C@@H](O)[C@H]1O (some centres unmarked) [Galactinol],-0.02052
7,O=C1O[C@H](CO)[C@@H](O)[C@H](O)[C@H]1O [Glucono delta-lactone],0.01629
8,O=C(O)CCCC(=O)O [Glutaric acid],-0.03876
9,O=C(O)CO [Glycolic acid],-0.06864
10,O=CC(=O)O [Glyoxylate],-0.02095
11,Nc1nc2c(ncn2[C@@H]2O[C@H](COP(=O)(O)OP(=O)(O)O)[C@@H](O)[C@H]2O)c(=O)[nH]1 [Guanosine 5-diphosphate],-0.07145
12,Nc1nc2c(ncn2[C@@H]2O[C@H](COP(=O)(O)OP(=O)(O)O[C@H]3O[C@H](CO)[C@@H](O)[C@H](O)[C@@H]3O)[C@@H](O)[C@H]2O)c(=O)[nH]1 [Guanosine diphosphate mannose],0.001828
13,Nc1nc2c(ncn2[C@@H]2O[C@H](CO)[C@@H](O)[C@H]2O)c(=O)[nH]1 [Guanosine],0.01196
14,O=C(O)CNC(=O)c1ccccc1 [Hippuric acid],0.07626
15,COc1cc(CC(=O)O)ccc1O [Homovanillic acid],-0.006498
16,O=C(O)C(=O)CO [Hydroxypyruvate],-0.04906

# Same assay, conditions: MIDAS screen, sheet eIF2Ba; metabolites screened in pools 1-4; p-value and q-value given
row,Structure (SMILES),log2(corrected fold change)
1,O=C(O)[C@H]1CCCN1 [D-Proline],-0.05584
2,O=C1CC[C@H](C(=O)O)N1 [D-Pyroglutamic Acid],-0.09309
3,O=P(O)(O)O[C@H]1O[C@H](CO)[C@@H](O)[C@H]1O [D-Ribose 1-phosphate],0.3189
4,O=C[C@H](O)[C@H](O)[C@H](O)COP(=O)(O)O [D-Ribose 5-phosphate],0.3189
5,OC[C@@H](O)[C@@H](O)[C@H](O)[C@@H](O)CO [D-Sorbitol],0.05676
6,O=C(CO)[C@@H](O)[C@@H](O)[C@H](O)COP(=O)(O)O [D-Tagatose 6-phosphate],-0.01162
7,O=C[C@H](O)[C@@H](O)[C@H](O)CO [D-Xylose],-0.1354
8,O=C(CO)[C@@H](O)[C@H](O)COP(=O)(O)O [D-Xylulose 5-phosphate],0.3189
9,"O=P(O)(O)O[C@@H]1[C@H](O)[C@H](O)[C@@H](OP(=O)(O)O)[C@H](OP(=O)(O)O)[C@H]1O [D-myo-Inositol-1,4,5-triphosphate]",0.2026
10,Nc1nc2c(ncn2[C@H]2C[C@H](O)[C@@H](COP(=O)(O)O)O2)c(=O)[nH]1 [Deoxyguanylate],0.08261
11,CC(C)(COP(=O)(O)OP(=O)(O)OC[C@H]1O[C@@H](n2cnc3c(N)ncnc32)[C@H](O)[C@@H]1O)[C@@H](O)C(=O)NCCC(=O)NCCS [Dephosphocoenzyme A],-0.1841
12,Nc1ncnc2c1ncn2[C@@H]1O[C@H](COP(=O)(O)OP(=O)(O)OP(=O)(O)OC[C@@H]2O[C@H](n3cnc4c(N)ncnc43)[C@@H](O)[C@H]2O)[C@@H](O)[C@H]1O [Diadenosine triphosphate],-0.1669
13,Nc1nc2c(c(=O)[nH]1)N=C(CNc1ccc(C(=O)N[C@@H](CCC(=O)O)C(=O)O)cc1)CN2 [Dihydrofolic acid],-0.03543
14,CC1CNC(=O)NC1=O (centres unmarked) [Dihydrothymine],-0.08021
15,O=C1CCNC(=O)N1 [Dihydrouracil],-0.08721
16,CN(C)c1ncnc2nc[nH]c12 [Dimethylaminopurine],-0.08009
17,OC[C@@H](O)[C@H](O)[C@H](O)[C@@H](O)CO [Dulcitol],-0.4944

row,Structure (SMILES),log2(corrected fold change)
1,Nc1nc(=O)c2c([nH]1)NC[C@@H](CNc1ccc(C(=O)N[C@@H](CCC(=O)O)C(=O)O)cc1)N2C=O [Folinic acid],0.129
2,N[C@@H](CCC(=O)N[C@@H](CS)C(=O)O)C(=O)O [Gamma-Glu-Cys],0.1652
3,O=C(CO)COP(=O)(O)O [Glycerone phosphate],0.09175
4,NC(N)=NCC(=O)O [Guanidineacetic acid],0.1469
5,Nc1nc2nc[nH]c2c(=O)[nH]1 [Guanine],0.2851
6,Nc1nc2c(ncn2[C@@H]2O[C@H](COP(=O)(O)O)[C@@H](O)[C@H]2O)c(=O)[nH]1 [Guanosine 5-monophosphate],1.415
7,Nc1nc2c(ncn2[C@@H]2O[C@H](COP(=O)(O)OP(=O)(O)OP(=O)(O)O)[C@@H](O)[C@H]2O)c(=O)[nH]1 [Guanosine 5-triphosphate],0.3966
8,NCCc1c[nH]cn1 [Histamine],0.1325
9,NC(=O)NCCCC[C@H](N)C(=O)O [Homocitrulline],0.1565
10,O=C(O)Cc1cc(O)ccc1O [Homogentisic acid],-0.08584
11,NCCS(=O)O [Hypotaurine],0.03998
12,O=c1[nH]cnc2nc[nH]c12 [Hypoxanthine],0.136
13,O=c1[nH]cnc2c1ncn2[C@@H]1O[C@H](COP(=O)(O)OP(=O)(O)OP(=O)(O)O)[C@@H](O)[C@H]1O [Inosine 5-triphosphate],-0.2055
14,O=c1[nH]cnc2c1ncn2[C@@H]1O[C@H](CO)[C@@H](O)[C@H]1O [Inosine],0.3045
15,CC(C)C(=O)NCC(=O)O [Isobutyrylglycine],-0.09012
16,OC[C@H]1O[C@H](OC[C@H]2OC(O)[C@H](O)[C@@H](O)[C@@H]2O)[C@H](O)[C@@H](O)[C@@H]1O (some centres unmarked) [Isomaltose],-0.3372
